≈ marks a conversion by molar mass, not a printed value.
Assays:
[1] = test system: Leishmania donovani; test: Leishmania donovani infected macrophage assay; format: cell-based; conditions: read-out: IC50 against Leishmania donovani
Protocol: (§1) The Leishmania donovani infected macrophage assay and cytotoxicity screen were conducted as previously described.

[2] = test system: C. difficile UK6; test: microbe, parasite or virus in culture; format: cell-based, Clostridium difficile; conditions: Clostridioides difficile, UK6, 48 h, read-out: MIC against C. difficile
Protocol: The screening against C. difficile was performed in two steps. In step 1, overnight culture of a hyper-virulent clinical strain C. difficile UK6 was inoculated into a fresh BHIS medium at a volume ratio of 1:1000. After pre-incubation at 37 °C under an anaerobic atmosphere for 2 h, the bacterial culture was divided into a sterile 96-well plate and each well contained 192 μL of bacterial culture. Then, 8 μL of each extract was added to each well of the plate, mixed thoroughly, and incubated at 37 °C in an anaerobic chamber for 48 h. Control groups of 200 μL of BHIS medium only, 200 μL of bacterial culture only, and 192 μL of bacterial culture in 8 μL of DMSO were also included in separate columns within each plate. […] Serial dilutions of each extract (400 μg/mL, 200 μg/mL, 100 μg/mL, 50 μg/mL, 20 μg/mL, 10 μg/mL, 5 μg/mL, and 2 μg/mL) were prepared in a fresh BHIS medium. Then, 100 μL of each extract dilution was added to 100 μL of bacterial culture (pretreated as described), mixed well, and incubated at 37 °C in an anaerobic chamber for 48 h. Control groups including wells containing fresh medium only and bacterial culture only were also included as described. Activity was determined as +/− (clear or turbid (OD600) culture). The MICs of the three recommended antibiotics metronidazole, vancomycin, and fidaxomicin against C. difficile UK6 were also determined using broth microdilution methodology.

[3] = test system: ESKAPE panel of bacterial pathogens; test: ESKAPE panel antibacterial screen; format: cell-based
[4] = MTT cytotoxicity toward human kidney cells; format: cell-based; conditions: human, HEK293T cells; host cell line HEK293T, MTT, 24 h incubation
Protocol: (§2) The cytotoxicity of the metabolites to human liver cells and kidney cells was determined using an MTT based-In Vitro Toxicology Assay Kit (Sigma–Aldrich, St. Louis, MO, USA) following the manufacturing instructions. The human kidney HEK293T cells and the human liver HEPGZ cells were used for the evaluation in this study. Both cell samples were maintained and suspended in Dulbecco’s Modified Eagle Medium (DMEM with 4.5 g/L glucose, L-glutamine and sodium pyruvate, Corning, Manassas, VA, USA) containing 10% fetal bovine serum (Thermo Scientific) and 1% penicillin/streptomycin at 37 °C under 5% CO2 atmosphere. The cells were plated on a 96-well plate with approximately 5 × 10^3–1 × 10^4 cells in each well, and incubated at 37 °C overnight. After that, each of the selected extracts from the antimicrobial susceptibility test was added to the wells and incubated with the cells at a series of 2-fold diluted concentrations ranging from 128 μg/mL to 0.125 μg/mL. […] After that, the liquid in each well of the plate was removed carefully and thoroughly, then the cells in the wells were treated with 100 μL of DMSO, and incubated at 37 °C for 15 m. […] Bio Tek Instruments, Inc. Winooski VT). Cells treated with vancomycin, a common option for treating CDI in clinical settings, were also included in the MTT tests as a control. Cell survival and the IC50 were calculated according to the method used in a previous publication: Survival of cells (%) = Drug-treated group OD540/control group OD540 × 100. The IC50 value was calculated as follows: lgIC50 = Xm − I [P − (3 − Pm − Pn)/4], where Xm was the log maximum dose, I was the log (maximum dose/adjacent dose), P was the sum of the positive response rate, Pm was the maximum positive response rate, and Pn was the minimum positive response rate.

[5] = Cytotoxicity screen against Leishmania host cell line; format: cell-based; conditions: mouse, J774.A1 macrophages
Protocol: as §1

[6] = MTT cytotoxicity toward human liver cells; format: cell-based; conditions: human, HepG2 cells; host cell line HepG2, MTT, 24 h incubation
Protocol: as §2

[7] = test system: HEK293T cells; test: MTT cytotoxicity toward human kidney cells; format: cell-based; conditions: at the same concentrations alcyopterosins were assayed
Protocol: as §2

[8] = test system: HepG2 cells; test: MTT cytotoxicity toward human liver cells; format: cell-based; conditions: at the same concentrations alcyopterosins were assayed
Protocol: as §2

For `CC(=O)OCCc1c(C)cc2c(c1COC(C)=O)CC(C)(C)C2` [4,12-Bis(acetyl)alcyopterosin O, 4,12-bis(acetyl)alcyopterosin O], the IC50 [1] was 1.2 µM.
With `Cc1cc2c(c3c1[C@@H](CO[N+](=O)[O-])OC3=O)CC(C)(C)C2` [Alcyopterosin E] the MIC [2] was 6.9 µM (≈ 2.01 µg/mL), the “activity against the ESKAPE panel of bacterial pathogens” value (from here on “activity against the ESKAPE panel”) [3] was “inactive” and the CC50 at 24 h [4] was 570 µM. For the same compound, the IC50 [1] was 3.1 µM, the IC50 [5] was 62 µM and the CC50 at 24 h [6] was 331 µM.
In the case of `Cc1cc2c(c3c1[C@@H](CO)OC3=O)CC(C)(C)C2` [Alcyopterosin V], the MIC [2] is reported as 8.1 µM (≈ 2 µg/mL), the “activity against the ESKAPE panel” value [3] is reported as “inactive” and the CC50 at 24 h [4] is reported as 220 µM. For the same compound, the IC50 [1] was 7 µM, the IC50 [5] was 110 µM and the CC50 at 24 h [6] was 288 µM.
For `CN[C@H](CC(C)C)C(=O)N[C@H]1C(=O)N[C@@H](CC(N)=O)C(=O)N[C@H]2C(=O)N[C@H]3C(=O)N[C@H](C(=O)N[C@H](C(=O)O)c4cc(O)cc(O)c4-c4cc3ccc4O)[C@H](O)c3ccc(c(Cl)c3)Oc3cc2cc(c3O[C@@H]2O[C@H](CO)[C@@H](O)[C@H](O)[C@H]2O[C@H]2C[C@](C)(N)[C@H](O)[C@H](C)O2)Oc2ccc(cc2Cl)[C@H]1O` [Vancomycin, reference compound], the MIC [2] was 0.34 µM (≈ 0.493 µg/mL), the “toxicity to host cells HEK293T” value [7] was “non-toxic” and the “toxicity to host cells HepG2” value [8] was “non-toxic”.
Compound `Cc1cc2c(c(C)c1CCO[N+](=O)[O-])CC(C)(C)C2=O` [alcyopterosin C] has an IC50 [1] of 13 µM.
Work on `Cc1cc2c(c3c1[C@@H](CCl)OC3=O)CC(C)(C)[C@@H]2O` [alcyopterosin L] yielded an IC50 [1] of 2.4 µM.
With `CC(=O)O[C@@H]1[C@H](OC(C)=O)[C@H]([C@H](C)CCCC(C)C)[C@@]2(C)C[C@@H](OC(C)=O)[C@H]3[C@@H](C[C@@H](O)[C@H]4CC=CC(=O)[C@]34C)[C@H]12` [alcyosterone] the “activity against the ESKAPE panel” value [3] was “inactive” and the IC50 [1] was 1.5 µM.
`CCCCCCCCCCCCCCCCOP(=O)([O-])OCC[N+](C)(C)C` [miltefosine, reference compound] showed an IC50 [1] of 6.2 µM.
